From patent publication US6417235B2, “Method and use of α-amino-β-mercapto-ethane derivatives as dicarbonyl scavengers for treatment of conditions resulting from protein, lipid, and DNA damage” (University of Kentucky Research Foundation, priority 2000, dated 2002)

Assays:
[1] = system: glycation of histone H1 by ADP-ribose; assay: Screening of inhibitors of nonoxidative advanced glycation: AGE-fluorescence on 96 well-microtiter plate; assay type: biochemical, calf; conditions: (± SEM, n = 2); for AGE-fluorescence (day 5): complete reaction under air
Protocol: All operations were carried out at 4° C. Chromatin was isolated from fresh calf thymus by extraction with 0.14 M NaCl, 0.05 M Na2S2O5, as described earlier in Wondrak supra. After repeated extraction with 5% HCl)4 and centrifugation (1500 g), histone H1 was precipitated from the supernatant by addition of TCA (20% final concentration v/v). The histone H1 precipitate was colleted by centrifugation (12,000 g) and deionized water. After extensive dialysis (MW cut-off: 12,000-14,000) against water for 48 h, the sample was lyophilized and the protein was stored at 4° C. SDS-PAGE (12%) was used to analyze the purity of the preparation.
Earlier studies have reported that D-penicillamine inhibits collagen crosslinking and AGE fluorescence caused by sugars (McPherson, J. D., Shilton, B. H., and Walton, D. J. 1988. Role of Fructose in Glycation and Cross-Linking of Proteins. Biochemistry 27, 1901-1907) and reaction of D-penicillamine with aldehyde groups of proteins (Deshmukh, K., and Nimm, M. E. 1969. A Defect in the Intramolecular and Intermolecular Cross-linking of Collagen caused by Penicillamine. J. Biol. Chem. 244, 1787-1795). A number of different penicillamines and penicillamine derivatives were tested to determine the inhibition of AGE-fluorescence on histone H1 at physiological pH. The reaction conditions for the glycation of histone H1 by ADP-ribose mimic physiological conditions to the extent possible. Reaction mixtures contain 1.5 mg/ml histone Hl, 1.0 mM ADP-ribose, 50 mM potassium phosphate buffer, pH 7.4, 37° C. D,L-penicillamine; L-penicillamine; D-penicllamine; D-penicillaminedisulfide and N,S- isopropylidine-D-penicillamine were tested in concentrations of 1,5 and 10 mM. The detected reaction parameter representing the accumulation of protein damage is AGE-fluorescence ((λex=[…]), which is suppressed by the presence of a compound with inhibitory activity. Generation of AGE-type fluorescence (λex=355 nm; λem=405 nm) was monitored over time at 37° C; which is in the range of the broad excitation/emission maxima of AGE compounds. To allow high throughput sample processing on 96 well microtiter plates, the reaction volumes are 300 μl. Fluorescence on the 96-well microtiter plates was measured using an automated microtiter fluorescence reader. Fluorescence of the 1 ml samples of the glycation reaction mixtures was measured using a Hitachi F-200 fluorescence spectophotometer, and prior to measurement the protein sample is dialyzed extensively against water (MW cutoff=[…]), lyophilized and reconstituted in reaction buffer. For inhibitor screening the plate is read on a Fluoroskan II plate reader (Titertek, ICN) at the excitation/emission wavelengths set forth above at a bandwidth of 35 nm.
The following screening scheme is used (see Table 1): AGE-fluorescence is determined at the beginning and after five days of incubation. Test compounds that are inherently fluorescent (designated false negatives) were identified by the initial fluorescence measurement (See Table 1, NADH for example). Since these are compounds of uncertain activity, they are diverted directly to the second stage of the screen. Aminoguanidine, a known glycation inhibitory agent, was used as a positive control for suppression of the increase on AGE-fluorescence. After five days incubation and plate reading, fluorescence quenchers (designated false positives) are excluded by measuring the quenching activity of the test compound by addition of AGE modified protein having known fluorescence activity to one microtiter plate well containing test compound in the complete reaction mixture. For this, AGE-BSA is used as the AGE-type fluorescence standard. This AGE-BSA test excludes false positives compounds that function by fluorescence quenching. If fluorescence quenching occurs the test compound is excluded from further screening. […] The protein is visualized by silver staining of the gel. […]

ΦX-174 DNA = assay: AGE-BSA photosensitized cleavage of ΦX-174 DNA under solar simulated light; assay type: biochemical; conditions: for effect on AGE-BSA photosensitized DNA cleavage: solar simulated light, AGE-BSA as photosensitizer; for photosensitizing activity (DNA nicking): SSL 0.8-16 J/cm^2
Protocol: Glycated Proteins as Photosensitizers of DNA Damage in Skin Photoaging. D-Penicillamine inhibits genotoxic consequences of AGE-photosensitization. Accumulation of AGEs on dermal elastin and collagen occurs during normal skin aging in humans. The hypothesis was tested that the intra- and extracellular accumulation of the complex yellow-brown AGE-chromophores contributes to skin aging and carcinogenesis induced by chronic exposure to sunlight. As a possible molecular mechanisms for a detrimental synergism of AGE-formation and exposure to sunlight, photosensitized DNA damage by AGEs was assessed in a simple in vitro system. Irradiation of covalently closed circular ΦX-174 DNA with increasing doses of solar simulated light (SSL) in the presence of AGE-BSA was used to detect photosensitized DNA nicking as a measure of DNA photodamage (panel A). […] Addition of several antioxidants modulated the photosensitization effect (panel C).

HaCat keratinocytes = assay: AGE-photosensitization of human skin cells, growth inhibition under solar simulated light
Protocol: Human HaCat keratinocytes growing on 35 mm dishes were exposed to solar simulated light (1.2 kJ/m^2 UVB and 23 kJ/m^2 UVA) in the presence or absence of AGE-BSA as a model of a protein with advanced glycation endproducts. Control populations were treated in exactly the same way as described above, but were not exposed to solar simulated light (SSL).

Compound	AGE-fluorescence (day 0) ([1]; compound 1 mM)	AGE-fluorescence (day 5) ([1]; compound 1 mM)	AGE-fluorescence (day 0) ([1]; compound 5 mM)	AGE-fluorescence (day 5) ([1]; compound 5 mM)	AGE-fluorescence (day 0) ([1]; compound 10 mM)	AGE-fluorescence (day 5) ([1]; compound 10 mM)	effect on AGE-BSA photosensitized DNA cleavage (ΦX-174 DNA)	photosensitizing activity (DNA nicking) (ΦX-174 DNA)	increase in growth inhibition as compared to SSL alone (HaCat keratinocytes; 10 mg/mL AGE-BSA with SSL) [fold]	growth inhibition (HaCat keratinocytes; 10 mg/mL AGE-BSA with SSL (1.2 kJ/m^2 UVB and 23 kJ/m^2 UVA)) [%]
NC(CCS)C(=O)O (racemic) [D,L-Homocysteine]	1.3 (0.0) relative units	16 (1.1) relative units	1.2 (0.2) relative units	22 (0.1) relative units	1.1 (0.1) relative units	27 (1.7) relative units				
CC(C)(S)C(N)C(=O)O (racemic) [D,L-Penicillamine]	1.1 (0.2) relative units	13 (0.0) relative units	1.1 (0.1) relative units	2.7 (0.0) relative units	1.1 (0.1) relative units	1.7 (0.0) relative units				
O=C1CC(=O)NC(=S)N1 [2-Thiobarbituric acid]	1.1 (0.1) relative units	12 (0.4) relative units	1.2 (0.1) relative units	5.3 (0.4) relative units	1.3 (0.1) relative units	2.3 (0.0) relative units				
NCCS [Cysteamine]	1.0 (0.1) relative units	10 (0.6) relative units	1.1 (0.1) relative units	9.0 (0.7) relative units	1.2 (0.2) relative units	6.0 (0.3) relative units				
N[C@@H](CCC(=O)N[C@@H](CS)C(=O)NCC(=O)O)C(=O)O [GSH, glutathione]	1.3 (0.0) relative units	19 (0.3) relative units	1.1 (0.3) relative units	17 (0.3) relative units	1.1 (0.0) relative units	14 (0.5) relative units				
COC(=O)[C@@H](N)CS [L-Cys-OMe]	1.2 (0.1) relative units	15 (0.1) relative units	1.3 (0.1) relative units	12 (0.8) relative units	1.2 (0.1) relative units	9.0 (0.2) relative units				
N[C@@H](CS)C(=O)O [L-Cys]	1.2 (0.1) relative units	14 (0.3) relative units	1.1 (0.1) relative units	11 (0.2) relative units	1.2 (0.1) relative units	9.0 (0.2) relative units				
C[N+](C)(C)[C@@H](Cc1c[nH]c(=S)[nH]1)C(=O)[O-] [L-Ergothioneine]	1.0 (0.1) relative units	13 (0.0) relative units	1.2 (0.0) relative units	9.3 (0.2) relative units	1.2 (0.1) relative units	7.4 (0.1) relative units				
OC[C@@H](O)[C@@H](O)[C@H](O)[C@H](O)CO [Mannitol]							blocked the photosensitized DNA cleavage			
CC(=O)N[C@@H](CS)C(=O)O [NAC]	1.2 (0.2) relative units	11 (0.6) relative units	1.0 (0.1) relative units	10 (0.4) relative units	1.1 (0.1) relative units	9.4 (0.6) relative units				
NC(=O)C1=CN([C@@H]2O[C@H](COP(=O)(O)OP(=O)(O)OC[C@H]3O[C@@H](n4cnc5c(N)ncnc54)[C@H](O)[C@@H]3O)[C@@H](O)[C@H]2O)C=CC1 [NADH]			52 (0.3) relative units	31 (0.0) relative units						
[N-]=[N+]=[N-].[Na+] [NaN3]							blocked the photosensitized DNA cleavage			
AGE-BSA: Glycosylated Bovine Serum Albumin, BSA incubated with D-glucose for 90 days at 37° C.								the damage was concentration dependent	4	80
L-Cys-Gly	1.3 (0.3) relative units	17 (0.0) relative units	1.2 (0.2) relative units	26 (0.4) relative units	1.2 (0.1) relative units	40 (0.0) relative units				
Unmodified BSA: unmodified bovine serum albumin								no such photosensitizing activity		
catalase							not effective			
